In US20130072430A1, “METHODS FOR TREATMENT OR PROPHYLAXIS OF KIDNEY OR LIVER DYSFUNCTION” (NPS PHARMACEUTICALS, INC., priority 2010, published 2013):

System: Human patients with short bowel syndrome
Test: Example 1: liver diagnostic biomarkers (total bilirubin, ALT, AST, ALP) in short bowel syndrome patients, every four weeks for 24 weeks
Assay type: in vivo
Experimental: Human patients with short bowel syndrome were divided into three groups: a control group (16 total individuals) to receive placebo, an experimental group (35 total individuals) to receive teduglutide at 0.05 mg/kg/day throughout the study, and an experimental group (32 total individuals) to receive teduglutide at 0.1 mg/kg/day throughout the study. Patients were treated by subcutaneous injection of placebo or the appropriate dose of teduglutide. As individuals with short bowel syndrome are likely to experience associated liver and kidney disease, known biomarkers of liver and kidney function were monitored every four weeks, for 24 weeks. The liver biomarkers tested included total bilirubin, ALT and AST and ALP. The kidney biomarkers tested included urea nitrogen, creatinine and GFR. Before administration of placebo or teduglutide, diagnostic biomarker levels were tested to establish a baseline for each individual.
To visualize the effect of GLP-2 on the levels of the diagnostic biomarkers, the average change from baseline was calculated for the placebo and teduglutide treated groups for each visit after a baseline was established. The average change from baseline of each group is depicted in FIGS. […]. The numerical figures for each diaanostic biomarker at each time point are depicted in Table 1.
The efficacy of teduglutide in treating liver dysfunction was further tested by sorting the data into two groups: individuals with abnormal baseline values of liver diagnostic biomarkers; and individuals with normal baseline values of liver diagnostic biomarkers. The mean diagnostic biomarker change from baseline for these two groups is shown for ALT (FIGS. 5 and 6) and AST (FIGS. 7 and 8). […] These changes were significant when compared to baseline levels for the group, and when compared to placebo (see FIGS. 5 and 7).
The raw data for this sorting is reproduced in Table 2 below.

[1] = Week 12, range −5%<= and <=5%, teduglutide 0.05 mg/kg/day
[2] = Week 12, range −5%<= and <=5%, teduglutide 0.1 mg/kg/day
[3] = Week 16, range <−5%, teduglutide 0.05 mg/kg/day
[4] = Week 16, range <−5%, teduglutide 0.1 mg/kg/day
[5] = Week 16, range >5%, teduglutide 0.05 mg/kg/day
[6] = Week 16, range >5%, teduglutide 0.1 mg/kg/day
[7] = Week 16, range −5%<= and <=5%, teduglutide 0.05 mg/kg/day
[8] = Week 16, range −5%<= and <=5%, teduglutide 0.1 mg/kg/day
[9] = Week 20, range <−5%, teduglutide 0.05 mg/kg/day
[10] = Week 20, range <−5%, teduglutide 0.1 mg/kg/day
[11] = Week 20, range >5%, teduglutide 0.05 mg/kg/day
[12] = Week 20, range >5%, teduglutide 0.1 mg/kg/day
[13] = Week 20, range −5%<= and <=5%, teduglutide 0.05 mg/kg/day
[14] = Week 20, range −5%<= and <=5%, teduglutide 0.1 mg/kg/day
[15] = Week 24, range <−5%, teduglutide 0.05 mg/kg/day
[16] = Week 24, range <−5%, teduglutide 0.1 mg/kg/day
[17] = Week 24, range >5%, teduglutide 0.05 mg/kg/day
[18] = Week 24, range >5%, teduglutide 0.1 mg/kg/day
[19] = Week 24, range −5%<= and <=5%, teduglutide 0.05 mg/kg/day
[20] = Week 24, range −5%<= and <=5%, teduglutide 0.1 mg/kg/day
[21] = compared to baseline and to placebo

CC[C@H](C)[C@H](NC(=O)[C@H](Cc1ccccc1)NC(=O)[C@H](CC(=O)O)NC(=O)[C@H](CCCNC(=N)N)NC(=O)[C@H](C)NC(=O)[C@H](C)NC(=O)[C@H](CC(C)C)NC(=O)[C@H](CC(N)=O)NC(=O)[C@H](CC(=O)O)NC(=O)[C@H](CC(C)C)NC(=O)[C@@H](NC(=O)[C@@H](NC(=O)[C@H](CC(N)=O)NC(=O)[C@H](CCSC)NC(=O)[C@H](CCC(=O)O)NC(=O)[C@H](CC(=O)O)NC(=O)[C@H](CO)NC(=O)[C@H](Cc1ccccc1)NC(=O)[C@H](CO)NC(=O)CNC(=O)[C@H](CC(=O)O)NC(=O)CNC(=O)[C@@H](N)Cc1c[nH]cn1)[C@@H](C)O)[C@@H](C)CC)C(=O)N[C@@H](CC(N)=O)C(=O)N[C@@H](Cc1c[nH]c2ccccc12)C(=O)N[C@@H](CC(C)C)C(=O)N[C@H](C(=O)N[C@@H](CCC(N)=O)C(=O)N[C@H](C(=O)N[C@@H](CCCCN)C(=O)N[C@H](C(=O)N[C@H](C(=O)N[C@@H](CC(=O)O)C(=O)O)[C@@H](C)O)[C@@H](C)CC)[C@@H](C)O)[C@@H](C)CC [teduglutide]
ALT (SGPT) change from baseline: patients in range, n(%) [1]: 4(11.4%) | AST (SGOT) change from baseline: patients in range, n(%) [1]: 3(8.6%) | TOTAL BILIRUBIN change from baseline: patients in range, n(%) [1]: 4(11.4%) | ALKALINE PHOSPHATASE change from baseline: patients in range, n(%) [2]: 1(3.1%) | ALT (SGPT) change from baseline: patients in range, n(%) [2]: 2(6.3%) | AST (SGOT) change from baseline: patients in range, n(%) [2]: 3(9.4%) | TOTAL BILIRUBIN change from baseline: patients in range, n(%) [2]: 6(18.8%) | ALKALINE PHOSPHATASE change from baseline: patients in range, n(%) [3]: 20(57.1%) | AST (SGOT) change from baseline: patients in range, n(%) [3]: 14(40.0%) | TOTAL BILIRUBIN change from baseline: patients in range, n(%) [3]: 14(40.0%) | ALKALINE PHOSPHATASE change from baseline: patients in range, n(%) [4]: 21(65.6%) | AST (SGOT) change from baseline: patients in range, n(%) [4]: 18(56.3%) | TOTAL BILIRUBIN change from baseline: patients in range, n(%) [4]: 14(43.8%) | ALKALINE PHOSPHATASE change from baseline: patients in range, n(%) [5]: 6(17.1%) | ALT (SGPT) change from baseline: patients in range, n(%) [5]: 12(34.3%) | AST (SGOT) change from baseline: patients in range, n(%) [5]: 8(22.9%) | TOTAL BILIRUBIN change from baseline: patients in range, n(%) [5]: 9(25.7%) | ALKALINE PHOSPHATASE change from baseline: patients in range, n(%) [6]: 7(21.9%) | ALT (SGPT) change from baseline: patients in range, n(%) [6]: 9(28.1%) | AST (SGOT) change from baseline: patients in range, n(%) [6]: 8(25.0%) | TOTAL BILIRUBIN change from baseline: patients in range, n(%) [6]: 6(18.8%) | ALT (SGPT) change from baseline: patients in range, n(%) (Week 16, range >−5%, teduglutide 0.05 mg/kg/day): 16(45.7%) | ALT (SGPT) change from baseline: patients in range, n(%) (Week 16, range >−5%, teduglutide 0.1 mg/kg/day): 19(59.4%) | ALKALINE PHOSPHATASE change from baseline: patients in range, n(%) [7]: 2(5.7%) | ALT (SGPT) change from baseline: patients in range, n(%) [7]: 0(0.0%) | AST (SGOT) change from baseline: patients in range, n(%) [7]: 6(17.1%) | TOTAL BILIRUBIN change from baseline: patients in range, n(%) [7]: 3(8.6%) | ALKALINE PHOSPHATASE change from baseline: patients in range, n(%) [8]: 2(6.3%) | ALT (SGPT) change from baseline: patients in range, n(%) [8]: 2(6.3%) | AST (SGOT) change from baseline: patients in range, n(%) [8]: 3(9.4%) | TOTAL BILIRUBIN change from baseline: patients in range, n(%) [8]: 8(25.0%) | ALKALINE PHOSPHATASE change from baseline: patients in range, n(%) [9]: 22(62.9%) | ALT (SGPT) change from baseline: patients in range, n(%) [9]: 17(48.6%) | AST (SGOT) change from baseline: patients in range, n(%) [9]: 17(48.6%) | TOTAL BILIRUBIN change from baseline: patients in range, n(%) [9]: 12(34.3%) | ALKALINE PHOSPHATASE change from baseline: patients in range, n(%) [10]: 19(59.4%) | ALT (SGPT) change from baseline: patients in range, n(%) [10]: 19(59.4%) | AST (SGOT) change from baseline: patients in range, n(%) [10]: 16(50.0%) | TOTAL BILIRUBIN change from baseline: patients in range, n(%) [10]: 14(43.8%) | ALKALINE PHOSPHATASE change from baseline: patients in range, n(%) [11]: 4(11.4%) | ALT (SGPT) change from baseline: patients in range, n(%) [11]: 9(25.7%) | AST (SGOT) change from baseline: patients in range, n(%) [11]: 6(17.1%) | TOTAL BILIRUBIN change from baseline: patients in range, n(%) [11]: 7(20.0%) | ALKALINE PHOSPHATASE change from baseline: patients in range, n(%) [12]: 9(28.1%) | ALT (SGPT) change from baseline: patients in range, n(%) [12]: 8(25.0%) | AST (SGOT) change from baseline: patients in range, n(%) [12]: 9(28.1%) | TOTAL BILIRUBIN change from baseline: patients in range, n(%) [12]: 9(28.1%) | ALKALINE PHOSPHATASE change from baseline: patients in range, n(%) [13]: 1(2.9%) | ALT (SGPT) change from baseline: patients in range, n(%) [13]: 1(2.9%) | AST (SGOT) change from baseline: patients in range, n(%) [13]: 4(11.4%) | TOTAL BILIRUBIN change from baseline: patients in range, n(%) [13]: 6(17.1%) | ALKALINE PHOSPHATASE change from baseline: patients in range, n(%) [14]: 1(3.1%) | ALT (SGPT) change from baseline: patients in range, n(%) [14]: 2(6.3%) | AST (SGOT) change from baseline: patients in range, n(%) [14]: 3(9.4%) | TOTAL BILIRUBIN change from baseline: patients in range, n(%) [14]: 6(18.8%) | ALKALINE PHOSPHATASE change from baseline: patients in range, n(%) [15]: 21(60.0%) | ALT (SGPT) change from baseline: patients in range, n(%) [15]: 18(51.4%) | AST (SGOT) change from baseline: patients in range, n(%) [15]: 17(48.6%) | TOTAL BILIRUBIN change from baseline: patients in range, n(%) [15]: 8(22.9%) | ALKALINE PHOSPHATASE change from baseline: patients in range, n(%) [16]: 20(62.5%) | ALT (SGPT) change from baseline: patients in range, n(%) [16]: 18(56.3%) | AST (SGOT) change from baseline: patients in range, n(%) [16]: 15(46.9%) | TOTAL BILIRUBIN change from baseline: patients in range, n(%) [16]: 11(34.4%) | ALKALINE PHOSPHATASE change from baseline: patients in range, n(%) [17]: 4(11.4%) | ALT (SGPT) change from baseline: patients in range, n(%) [17]: 4(11.4%) | AST (SGOT) change from baseline: patients in range, n(%) [17]: 6(17.1%) | TOTAL BILIRUBIN change from baseline: patients in range, n(%) [17]: 10(28.6%) | ALKALINE PHOSPHATASE change from baseline: patients in range, n(%) [18]: 5(15.6%) | ALT (SGPT) change from baseline: patients in range, n(%) [18]: 11(34.4%) | AST (SGOT) change from baseline: patients in range, n(%) [18]: 11(34.4%) | TOTAL BILIRUBIN change from baseline: patients in range, n(%) [18]: 10(31.3%) | ALKALINE PHOSPHATASE change from baseline: patients in range, n(%) [19]: 0(0.0%) | ALT (SGPT) change from baseline: patients in range, n(%) [19]: 4(11.4%) | AST (SGOT) change from baseline: patients in range, n(%) [19]: 3(8.6%) | TOTAL BILIRUBIN change from baseline: patients in range, n(%) [19]: 4(11.4%) | ALKALINE PHOSPHATASE change from baseline: patients in range, n(%) [20]: 4(12.5%) | ALT (SGPT) change from baseline: patients in range, n(%) [20]: 0(0.0%) | AST (SGOT) change from baseline: patients in range, n(%) [20]: 3(9.4%) | TOTAL BILIRUBIN change from baseline: patients in range, n(%) [20]: 6(18.8%) | fraction of individuals experiencing a decrease of more than 5% in ALT versus placebo (beginning at 4 weeks after commencement of treatment): greater fraction of individuals experiencing a decrease of more than 5% | ALT change from baseline in patients with abnormal baseline values (FIG. 5) [21]: statistically significant improvements | AST change from baseline in patients with abnormal baseline values (FIG. 7) [21]: statistically significant improvements | average level of ALP relative to baseline (FIG. 4) (groups receiving teduglutide): decreased relative to baseline for the entire period of the study | percent of individuals experiencing an increase of greater than 5% in ALP or ALT versus placebo (groups receiving teduglutide): effective prophylactic against increases in biomarkers associated with liver dysfunction | average decrease of the level of ALT from baseline (FIG. 1) (groups receiving teduglutide, maintained for the entire duration of the study): about 10 U/L | individuals experiencing a decrease in ALP greater than 5% from baseline (within 4 weeks of the beginning of treatment, groups receiving teduglutide): roughly 60%
